Assay results published in US8367668B2, “Pyridazinone derivatives” (Merck Patent Gesellschaft mit Beschränkter Haftung, priority 2007, dated 2013).

molecular target: T1, Met kinase (Homo sapiens, UniProt P08581); assay: Met kinase inhibition (enzyme assay), flashplate method; assay type: biochemical
T1 construct: 6His (N); purchased Upstate 14-526; host or cells: Sf21 insect cells (S. frugiperda), baculovirus
Source text: Measurement of Met Kinase Activity
According to the manufacturer's data (Met, active, upstate, catalogue No. 14-526), Met kinase is expressed for the purposes of protein production in insect cells (Sf21; S. frugiperda) and subsequent affinity-chromatographic purification as “N-terminal 6His-tagged” recombinant human protein in a baculovirus expression vector.
The kinase activity can be measured using various available measurement systems. In the scintillation proximity method (Sorg et al., J. of Biomolecular Screening, 2002, 7, 11-19), the flashplate method or the filter binding test, the radioactive phosphorylation of a protein or peptide as substrate is measured using radioactively labelled ATP (^32P-ATP, ^33P-ATP). In the case of the presence of an inhibitory compound, a reduced radioactive signal, or none at all, can be detected. Furthermore, homogeneous time-resolved fluorescence resonance energy transfer (HTR-FRET) and fluoroescence polarisation (FP) technologies can be used as assay methods (Sills et al., J. of Biomolecular Screening, 2002, 191-214).
Flashplate Method (Met Kinase)
The test plates used are 96-well Flashplate® microtitre plates from Perkin Elmer (Cat. No. SMP200). The components of the kinase reaction described below are pipetted into the assay plate. The Met kinase and the substrate poly Ala-Glu-Lys-Tyr, (pAGLT, 6:2:5:1), are incubated for 3 hrs at room temperature with radioactively labelled ^33P-ATP in the presence and absence of test substances in a total volume of 100 μl. The reaction is terminated using 150 μl of a 60 mM EDTA solution. After incubation for a further 30 min at room temperature, the supernatants are filtered off with suction, and the wells are washed three times with 200 μl of 0.9% NaCl solution each time. The measurement of the bound radioactivity is carried out by means of a scintillation measuring instrument (Topcount NXT, Perkin-Elmer).
The full value used is the inhibitor-free kinase reaction. This should be approximately in the range 6000-9000 cpm. The pharmacological zero value used is staurosporin in a final concentration of 0.1 mM. The inhibitory values (IC50) are determined using the RS1_MTS program.
Kinase reaction conditions per well: • 30 μl of assay buffer • 10 μl of substance to be tested in assay buffer with 10% of DMSO • 10 μl of ATP (final concentration 1 μM cold, 0.35 μCi of ^33P-ATP) • 50 μl of Met kinase/substrate mixture in assay buffer; • (10 ng of enzyme/well, 50 ng of pAGLT/well)
50 mM HEPES • 3 mM magnesium chloride • 3 μM sodium orthovanadate • 3 mM manganese(II) chloride • 1 mM dithiothreitol (DTT)
pH=7.5 (to be set using sodium hydroxide)
60 mM Titriplex III (EDTA)
Met kinase: Upstate, Cat. No. 14-526, Stock 1 μg/10 μl; spec. activity 954 U/mg;
Poly-Ala-Glu-Lys-Tyr, 6:2:5:1: Sigma Cat. No. P1152
Pharmacological Data Met Kinase Inhibitions (Enzyme Assay)

T1 sequence (P08581 974-1390 limits assumed): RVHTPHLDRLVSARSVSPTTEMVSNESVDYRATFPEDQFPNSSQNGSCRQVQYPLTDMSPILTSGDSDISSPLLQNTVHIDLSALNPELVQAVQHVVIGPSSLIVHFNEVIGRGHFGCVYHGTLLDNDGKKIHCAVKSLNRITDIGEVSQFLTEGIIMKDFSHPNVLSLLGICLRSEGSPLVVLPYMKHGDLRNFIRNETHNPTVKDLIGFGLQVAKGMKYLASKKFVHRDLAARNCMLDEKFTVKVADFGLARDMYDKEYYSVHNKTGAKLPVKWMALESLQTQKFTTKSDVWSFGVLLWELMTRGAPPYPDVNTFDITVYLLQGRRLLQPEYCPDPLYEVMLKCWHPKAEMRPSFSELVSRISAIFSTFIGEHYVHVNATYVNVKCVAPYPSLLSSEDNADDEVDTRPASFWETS

SMILES	IC50
CCOC(=O)Nc1cccc(Cn2nc(-c3ccc(C(=O)NCCO)cc3)ccc2=O)c1 [A2, ethyl(3-{3-[4-(2-hydroxyethylcarbamoyl)phenyl]-6-oxo-6H-pyridazin-1-ylmethyl}phenyl)carbamate]	10 to 1000 nM
CCOC(=O)Nc1cccc(Cn2nc(-c3ccc(C(=O)NCCOC)cc3)ccc2=O)c1 [A3]	10 to 1000 nM
CCOC(=O)Nc1cccc(Cn2nc(-c3ccc(C(=O)NCCCO)cc3)ccc2=O)c1 [A5]	10 to 1000 nM
CCOC(=O)Nc1cccc(Cn2nc(-c3ccc(C(=O)NCC(O)CO)cc3)ccc2=O)c1 (centres unmarked) [A6]	10 to 1000 nM
CCOC(=O)Nc1cccc(Cn2nc(-c3ccc(C(=O)NCCS(C)(=O)=O)cc3)ccc2=O)c1 [A7]	10 to 1000 nM
CCOC(=O)CNC(=O)c1ccc(-c2ccc(=O)n(Cc3cccc(NC(=O)OCC)c3)n2)cc1 [A8]	10 to 1000 nM
CCOC(=O)CN(C)C(=O)c1ccc(-c2ccc(=O)n(Cc3cccc(NC(=O)OCC)c3)n2)cc1 [A9]	10 to 1000 nM
CCOC(=O)Nc1cccc(Cn2nc(-c3ccc(C(=O)NCCCn4ccnc4)cc3)ccc2=O)c1 [A10]	10 to 1000 nM
CCOC(=O)Nc1cccc(Cn2nc(-c3ccc(C(=O)NCCCCN(C)C)cc3)ccc2=O)c1 [A11]	10 to 1000 nM
CCOC(=O)Nc1cccc(Cn2nc(-c3ccc(C(=O)N(C)CCO)cc3)ccc2=O)c1 [A12]	10 to 1000 nM
CCOC(=O)CCNC(=O)c1ccc(-c2ccc(=O)n(Cc3cccc(NC(=O)OCC)c3)n2)cc1 [A13]	10 to 1000 nM
CCOC(=O)Nc1cccc(Cn2nc(-c3ccc(C(=O)NCCCN(C)C)cc3)ccc2=O)c1 [A14]	10 to 1000 nM
CCOC(=O)Nc1cccc(Cn2nc(-c3ccc(C(=O)NCCN(C)C)cc3)ccc2=O)c1 [A15]	10 to 1000 nM
CCOC(=O)Nc1cccc(Cn2nc(-c3ccc(C(=O)NCCCOC)cc3)ccc2=O)c1 [A16]	10 to 1000 nM
CCOC(=O)Nc1cccc(Cn2nc(-c3ccc(C(=O)NCCN4CCOCC4)cc3)ccc2=O)c1 [A17]	10 to 1000 nM
CCOC(=O)Nc1cccc(Cn2nc(-c3ccc(C(=O)NCCN4CCCCC4)cc3)ccc2=O)c1 [A18]	10 to 1000 nM
CCOC(=O)Nc1cccc(Cn2nc(-c3ccc(C(=O)N(C)CCN(CC)CC)cc3)ccc2=O)c1 [A19]	10 to 1000 nM
CCOC(=O)Nc1cccc(Cn2nc(-c3ccc(C(=O)NCCN(CC)CC)cc3)ccc2=O)c1 [A20]	10 to 1000 nM
CCOC(=O)Nc1cccc(Cn2nc(-c3ccc(C(=O)NCCNC(C)C)cc3)ccc2=O)c1 [A21]	10 to 1000 nM
CCOC(=O)Nc1cccc(Cn2nc(-c3ccc(C(=O)NCCCN4CCN(C)CC4)cc3)ccc2=O)c1 [A22]	10 to 1000 nM
CCOC(=O)Nc1cccc(Cn2nc(-c3ccc(C(=O)NCCCN4CCCC4)cc3)ccc2=O)c1 [A23]	10 to 1000 nM

SMILES	IC50
CCOC(=O)Nc1cccc(Cn2nc(-c3ccc(C(=O)NCCCN4CCCC4=O)cc3)ccc2=O)c1 [A24]	10 to 1000 nM
CCOC(=O)Nc1cccc(Cn2nc(-c3ccc(C(=O)NCCCN(CC)CC)cc3)ccc2=O)c1 [A25]	10 to 1000 nM
CCOC(=O)Nc1cccc(Cn2nc(-c3ccc(C(=O)NCCCN4CCCCC4)cc3)ccc2=O)c1 [A26]	10 to 1000 nM
CCOC(=O)Nc1cccc(Cn2nc(-c3ccc(C(=O)NCCCN4CCOCC4)cc3)ccc2=O)c1 [A27]	10 to 1000 nM
CCOC(=O)Nc1cccc(Cn2nc(-c3ccc(C(=O)NCCCCN4CCCC4)cc3)ccc2=O)c1 [A28]	10 to 1000 nM
CCOC(=O)Nc1cccc(Cn2nc(-c3ccc(C(=O)NCCCCO)cc3)ccc2=O)c1 [A42]	10 to 1000 nM
CCOC(=O)Nc1cccc(Cn2nc(-c3cccc(C(=O)NCCCCNC(=O)OC(C)(C)C)c3)ccc2=O)c1 [A43, ethyl(3-{3-[3-(4-tert-butoxycarbonylaminobutylcarbamoyl)-phenyl]-6-oxo-6H-pyridazin-1-ylmethyl}phenyl)carbamate]	10 to 1000 nM
CCOC(=O)Nc1cccc(Cn2nc(-c3cccc(C(=O)NCCCNC(=O)OC(C)(C)C)c3)ccc2=O)c1 [A44]	10 to 1000 nM
CCOC(=O)Nc1cccc(Cn2nc(-c3cccc(C(=O)NCCNC(=O)OC(C)(C)C)c3)ccc2=O)c1 [A45]	10 to 1000 nM
CCOC(=O)Nc1cccc(Cn2nc(-c3cccc(C(=O)NCCCCN(C)C)c3)ccc2=O)c1 [A46]	10 to 1000 nM
CCOC(=O)Nc1cccc(Cn2nc(-c3cccc(C(=O)NCCCN(C)C)c3)ccc2=O)c1 [A47]	10 to 1000 nM
CCOC(=O)Nc1cccc(Cn2nc(-c3cccc(C(=O)NCCN(C)C)c3)ccc2=O)c1 [A48]	10 to 1000 nM
CCOC(=O)Nc1cccc(Cn2nc(-c3cccc(C(=O)NCCO)c3)ccc2=O)c1 [A49]	10 to 1000 nM
CCOC(=O)Nc1cccc(Cn2nc(-c3cccc(C(=O)NCCOC)c3)ccc2=O)c1 [A50]	10 to 1000 nM
CCOC(=O)Nc1cccc(Cn2nc(-c3cccc(C(=O)NCCCOC)c3)ccc2=O)c1 [A51]	10 to 1000 nM
CCOC(=O)Nc1cccc(Cn2nc(-c3cccc(C(=O)NCCCO)c3)ccc2=O)c1 [A52]	10 to 1000 nM
CCOC(=O)Nc1cccc(Cn2nc(-c3cccc(C(=O)NCCCCO)c3)ccc2=O)c1 [A53]	10 to 1000 nM
CCOC(=O)Nc1cccc(Cn2nc(-c3ccc(CC(=O)NCCCCNC(=O)OC(C)(C)C)cc3)ccc2=O)c1 [A54, ethyl[3-(3-{4-[(4-tert-butoxycarbonylaminobutyl-carbamoyl)methyl]phenyl}-6-oxo-6H-pyridazin-1-ylmethyl)phenyl]-carbamate]	10 to 1000 nM
CCOC(=O)Nc1cccc(Cn2nc(-c3ccc(CC(=O)NCCNC(=O)OC(C)(C)C)cc3)ccc2=O)c1 [A55]	10 to 1000 nM
CCOC(=O)Nc1cccc(Cn2nc(-c3ccc(CC(=O)NCCCCN(C)C)cc3)ccc2=O)c1 [A56]	10 to 1000 nM
CCOC(=O)Nc1cccc(Cn2nc(-c3ccc(CC(N)=O)cc3)ccc2=O)c1 [A57]	10 to 1000 nM

SMILES	IC50
CCOC(=O)Nc1cccc(Cn2nc(-c3cccc(CC(=O)NCCCNC(=O)OC(C)(C)C)c3)ccc2=O)c1 [A61]	10 to 1000 nM
CCOC(=O)Nc1cccc(Cn2nc(-c3cccc(CC(=O)NCCNC(=O)OC(C)(C)C)c3)ccc2=O)c1 [A62]	10 to 1000 nM
CCOC(=O)Nc1cccc(Cn2nc(-c3cccc(CC(=O)NCCCCN(C)C)c3)ccc2=O)c1 [A63]	10 to 1000 nM
CCOC(=O)Nc1cccc(Cn2nc(-c3cccc(CC(=O)NCCCN(C)C)c3)ccc2=O)c1 [A64]	10 to 1000 nM
CCOC(=O)Nc1cccc(Cn2nc(-c3cccc(CC(=O)NCCN(C)C)c3)ccc2=O)c1 [A65]	10 to 1000 nM
CCOC(=O)Nc1cccc(Cn2nc(-c3cccc(CC(=O)NCCCO)c3)ccc2=O)c1 [A66]	10 to 1000 nM
CCOC(=O)Nc1cccc(Cn2nc(-c3cccc(CC(=O)N(C)CCO)c3)ccc2=O)c1 [A67]	10 to 1000 nM
CCOC(=O)Nc1cccc(Cn2nc(-c3cccc(CC(=O)NCCOC)c3)ccc2=O)c1 [A68]	10 to 1000 nM
CCOC(=O)Nc1cccc(Cn2nc(-c3cccc(CC(N)=O)c3)ccc2=O)c1 [A69]	10 to 1000 nM
CCOC(=O)Nc1cccc(Cn2nc(-c3cccc(CC(=O)NCCCOC)c3)ccc2=O)c1 [A70]	10 to 1000 nM
CCOC(=O)Nc1cccc(Cn2nc(-c3cccc(CC(=O)NCCCCO)c3)ccc2=O)c1 [A71]	10 to 1000 nM
CCOC(=O)Nc1cccc(Cn2nc(-c3cccc(CC(=O)NCCO)c3)ccc2=O)c1 [A72]	10 to 1000 nM
CCOC(=O)Nc1cccc(Cn2nc(-c3ccc(CNC(=O)CNC(C)=O)cc3)ccc2=O)c1 [A75, ethyl[3-(3-{4-[(2-acetylaminoacetylamino)methyl]phenyl}-6-oxo-6H-pyridazin-1-ylmethyl)phenyl]carbamate]	10 to 1000 nM
CCOC(=O)Nc1cccc(Cn2nc(-c3ccc(CNC(=O)Cn4ccccc4=O)cc3)ccc2=O)c1 [A76]	10 to 1000 nM
CCOC(=O)Nc1cccc(Cn2nc(-c3ccc(CNC(=O)Cc4nnn[nH]4)cc3)ccc2=O)c1 [A77]	10 to 1000 nM
CCOC(=O)Nc1cccc(Cn2nc(-c3ccc(CNC(=O)CCNC=O)cc3)ccc2=O)c1 [A78]	10 to 1000 nM
CCOC(=O)Nc1cccc(Cn2nc(-c3ccc(CNC(=O)Cn4cnnn4)cc3)ccc2=O)c1 [A79]	10 to 1000 nM
CCOC(=O)Nc1cccc(Cn2nc(-c3ccc(CNC(=O)CN(C)C)cc3)ccc2=O)c1 [A80]	10 to 1000 nM
CCOC(=O)Nc1cccc(Cn2nc(-c3ccc(CNC(=O)COC)cc3)ccc2=O)c1 [A81]	10 to 1000 nM
CCOC(=O)Nc1cccc(Cn2nc(-c3ccc(CNC(=O)CN4CCOCC4)cc3)ccc2=O)c1 [A82]	10 to 1000 nM
